According to patent publication US4100346A, “Certain 7(o-amino-methyl- or methylaminomethylphenyl- or cyclohexadienyl- or thienylacetamide)-3[1-carboxymethyl-(or ethyl- or propyl-)-tetrazol-5-ylthiomethyl]-3-cephem-4-carboxylic acids” (Bristol-Myers Company, priority 1976, dated 1978):
In brackets after ≈: the same amount, converted by molar mass. Read-outs that look alike come from different tables or passages of the source.

Experiments:
Klebsiella pneumoniae = assay: Effect of inoculum size on susceptibility of Enterobacteriaceae
Staphylococcus Aureus = assay: Effect of inoculum size on susceptibility of Staphylococcus aureus; assay type: cell-based; conditions: for MICB /MICA: MIC at 10^6 over MIC at 10^2 organisms; for MIC: Staphylococcus aureus, read-out: Minimum inhibitory concentration
in vitro = in vitro ADME, human; conditions: In 95% human serum; read-out: protein bound (converted)
Erwinia sp. = assay: Growth inhibitory activity, antibiotic dilution technique; conditions: read-out: Minimum inhibitory concentration
Serratia marcescens = assay: as above; conditions: read-out: Minimum inhibitory concentration
Pseudomonas aeruginosa = assay: as above; conditions: read-out: Minimum inhibitory concentration
Enterobacter cloacae = assay: Intramuscular treatment of systemically infected mice; assay type: in vivo; conditions: mice, intramuscular; compared with control cephalosporins
Description: Treatment of Systemically Infected Mice. The procedures were identical with those published previously [Leitner et al., BL-S640, a Cephalosporin With a Broad Spectrum of Antibacterial Activity: Bioavailability and Therapeutic Properties in Rodents, Antimicrob. Agents Chemother.
(a) the hog gastric mucin used in infections with Staphylococcus aureus No. 2 was purchased from American Laboratories, Inc., Omaha, Neb.

[1] = Recovery in urine after intramuscular injection; conditions: rat, im, 10 mg/kg
Arizona hinshawii = assay: Growth inhibitory activity, antibiotic dilution technique; conditions: Salmonella enterica, read-out: Minimum inhibitory concentration
Vibrio cholerae = assay: as above; conditions: read-out: Minimum inhibitory concentration
Neisseria gonorrhoeae = assay: as above
Proteus rettgeri = assay: Effect of inoculum size on susceptibility of Enterobacteriaceae; conditions: Providencia rettgeri
[2] = Antibiotic concentration in blood after intramuscular injection; conditions: mouse, im
[3] = tested on: β-lactamase Class II Type a, Proteus mirabilis 1266; assay type: biochemical
Method: (§1) Miscellaneous. Methods for determining bactericidal activity and susceptibility to cell-free β-lactamase were those previously used; Leitner et al., BL-S640, A Cephalosporin With a Broad Spectrum of Antibacterial Activity: Properties in vitro, Antimicrob. Agents Chemother.
(§2) Susceptibility to β-lactamase. Susceptibility to enzymic hydrolysis was assessed by determining relative rates of hydrolysis by cell-free preparations of various β-lactamases (Table 6).

[4] = tested on: β-lactamase Class IV Type b, Klebsiella pneumoniae 1169; assay type: biochemical
Method: as §1, §2

[5] = biological target: β-lactamase Class I Type b, Escherichia coli 719 (Escherichia coli, UniProt P00811); assay type: biochemical
Method: as §1, §2

[6] = tested on: β-lactamase Class IV Type a, Klebsiella pneumoniae 53; assay type: biochemical
Method: as §1, §2

[7] = biological target: T1, β-lactamase Class III Type a, Escherichia coli TEM (Escherichia coli, UniProt P62593); assay type: biochemical
T1 construct: cell-free preparations of various β-lactamases; endogenous in cells; host or cells: Escherichia coli strain TEM
Method: as §1, §2

[8] = biological target: β-lactamase Class I Type a, Enterobacter cloacae 214 (Enterobacter cloacae, UniProt P05364); assay type: biochemical
Method: as §1, §2

Haemophilus influenzae = assay: Growth inhibitory activity, antibiotic dilution technique; conditions: including 9 ampicillin-resistant strains
[9] = tested on: Bordetella bronchiseptica; assay: as above; conditions: read-out: Minimum inhibitory concentration
Proteus vulgaris = assay: Effect of inoculum size on susceptibility of Enterobacteriaceae
Bacteroides Fragilis = assay: Growth inhibitory activity, antibiotic dilution technique (obligate anaerobes); assay type: cell-based; conditions: 3 strains, geometric mean when applicable, read-out: Minimum inhibitory concentration
Method: Antibiotic spectrum. […] Procedures were as follows:
c. Obligate anaerobes. The assay was performed on solid medium, consisting of Brain Heart Infusion Broth (BBL) supplemented with 5% defibrinated sheep blood and 1% Ionagar (Colab). […] The plates were incubated at 37° C. for 48 hours under the oxygen-free conditions attained with a Gas-Pak (BBL) Brewer jar system.

Enterobacter aerogenes = assay: Effect of inoculum size on susceptibility of Enterobacteriaceae; conditions: Klebsiella aerogenes, read-out: Minimum Inhibitory Concentration, Enterobacter aerogenes strain 1

T1 sequence (P62593 24-286 limits assumed): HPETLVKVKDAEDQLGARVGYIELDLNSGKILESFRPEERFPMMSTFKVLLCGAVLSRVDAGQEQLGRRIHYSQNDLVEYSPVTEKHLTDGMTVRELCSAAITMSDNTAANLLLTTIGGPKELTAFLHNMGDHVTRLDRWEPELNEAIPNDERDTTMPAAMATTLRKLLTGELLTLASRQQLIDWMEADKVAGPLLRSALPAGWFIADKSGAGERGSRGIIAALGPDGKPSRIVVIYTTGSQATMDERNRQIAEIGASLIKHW
Chain of β-lactamase Class I Type b, Escherichia coli 719 (P00811 20-377): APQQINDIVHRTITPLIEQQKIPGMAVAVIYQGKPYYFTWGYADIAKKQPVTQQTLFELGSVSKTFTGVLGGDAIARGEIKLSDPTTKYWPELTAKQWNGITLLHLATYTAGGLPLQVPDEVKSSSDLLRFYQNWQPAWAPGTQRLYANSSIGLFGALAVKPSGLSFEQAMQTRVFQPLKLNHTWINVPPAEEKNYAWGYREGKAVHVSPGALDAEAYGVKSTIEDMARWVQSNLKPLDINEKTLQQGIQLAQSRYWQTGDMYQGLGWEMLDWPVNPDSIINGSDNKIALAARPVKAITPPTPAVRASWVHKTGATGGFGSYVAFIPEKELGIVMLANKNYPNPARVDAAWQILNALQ
Chain of β-lactamase Class I Type a, Enterobacter cloacae 214 (P05364 21-381): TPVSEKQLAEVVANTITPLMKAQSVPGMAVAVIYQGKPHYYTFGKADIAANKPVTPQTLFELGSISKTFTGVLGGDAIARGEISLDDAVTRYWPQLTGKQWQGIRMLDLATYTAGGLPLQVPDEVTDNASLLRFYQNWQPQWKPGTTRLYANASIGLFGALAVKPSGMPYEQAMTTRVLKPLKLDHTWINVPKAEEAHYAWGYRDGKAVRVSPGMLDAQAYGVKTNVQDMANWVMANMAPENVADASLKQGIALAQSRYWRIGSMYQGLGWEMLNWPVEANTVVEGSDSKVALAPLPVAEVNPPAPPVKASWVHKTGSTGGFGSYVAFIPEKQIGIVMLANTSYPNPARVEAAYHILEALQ

NCc1ccccc1CC(=O)N[C@@H]1C(=O)N2C(C(=O)O)=C(CSc3nnnn3CC(=O)O)CS[C@H]12 [Example 1]
MIC (Klebsiella pneumoniae; read-out: Minimum Inhibitory Concentration, Klebsiella pneumoniae strain 1, A, Inoculum of 10^2 organisms): 0.5 µg/mL (≈ 0.962 µM) | MIC (Klebsiella pneumoniae; read-out: Minimum Inhibitory Concentration, Klebsiella pneumoniae strain 1, B, Inoculum of 10^6 organisms): 1 µg/mL (≈ 1.92 µM) | MIC (Klebsiella pneumoniae; read-out: Minimum Inhibitory Concentration, Klebsiella pneumoniae strain 2, A, Inoculum of 10^2 organisms): 0.25 µg/mL (≈ 0.481 µM) | MIC (Klebsiella pneumoniae; read-out: Minimum Inhibitory Concentration, Klebsiella pneumoniae strain 2, B, Inoculum of 10^6 organisms): 2 µg/mL (≈ 3.85 µM) | MIC (Klebsiella pneumoniae; read-out: Minimum Inhibitory Concentration, Klebsiella pneumoniae strain 3, A, Inoculum of 10^2 organisms): 0.5 µg/mL (≈ 0.962 µM) | MIC (Klebsiella pneumoniae; read-out: Minimum Inhibitory Concentration, Klebsiella pneumoniae strain 3, B, Inoculum of 10^6 organisms): 4 µg/mL (≈ 7.7 µM) | MIC (Klebsiella pneumoniae; read-out: Minimum Inhibitory Concentration, Klebsiella pneumoniae strain 4, A, Inoculum of 10^2 organisms): 0.5 µg/mL (≈ 0.962 µM) | MIC (Klebsiella pneumoniae; read-out: Minimum Inhibitory Concentration, Klebsiella pneumoniae strain 4, B, Inoculum of 10^6 organisms): 4 µg/mL (≈ 7.7 µM) | MIC (Klebsiella pneumoniae; read-out: Minimum Inhibitory Concentration, Klebsiella pneumoniae strain 5, A, Inoculum of 10^2 organisms): 0.5 µg/mL (≈ 0.962 µM) | MIC (Klebsiella pneumoniae; read-out: Minimum Inhibitory Concentration, Klebsiella pneumoniae strain 5, B, Inoculum of 10^6 organisms): 2 µg/mL (≈ 3.85 µM) | MIC (Klebsiella pneumoniae; read-out: Minimum Inhibitory Concentration, Klebsiella pneumoniae strain 6, A, Inoculum of 10^2 organisms): 0.25 µg/mL (≈ 0.481 µM) | MIC (Klebsiella pneumoniae; read-out: Minimum Inhibitory Concentration, Klebsiella pneumoniae strain 6, B, Inoculum of 10^6 organisms): 4 µg/mL (≈ 7.7 µM) | MICB /MICA (Staphylococcus Aureus; Lacking penicillinase, 3 strains): 1.6 | MICB /MICA (Staphylococcus Aureus; Penicillinase producer, 26 strains): 1.5 | MIC (Staphylococcus Aureus; Lacking penicillinase, 3 strains, B, inoculum of 10^6 organisms, geometric means): 2.5 µg/mL (≈ 4.81 µM) | MIC (Staphylococcus Aureus; Penicillinase producer, 26 strains, A, Inoculum of 10^2 organisms, geometric means): 3.8 µg/mL (≈ 7.31 µM) | MIC (Staphylococcus Aureus; Penicillinase producer, 26 strains, B, inoculum of 10^6 organisms, geometric means): 5.7 µg/mL (≈ 11 µM) | MIC (Staphylococcus Aureus): 1.6 µg/mL (≈ 3.08 µM) | effect of cell concentration on growth inhibitory activity (Staphylococcus Aureus; penicillinase-producing strains): slightly | fraction unbound (in vitro): 0.33 | MIC (Erwinia sp.): 0.66 µg/mL (≈ 1.27 µM) | MIC (Serratia marcescens): > 125 µg/mL | MIC (Pseudomonas aeruginosa): > 125 µg/mL | efficacy against infections with Enterobacter cloacae (Enterobacter cloacae): alone was effective | dose excreted at 24 h [1]: 65% | MIC (Arizona hinshawii): 0.13 µg/mL (≈ 0.25 µM) | MIC (Vibrio cholerae): 4 µg/mL (≈ 7.7 µM) | susceptibility of Neisseria gonorrhoeae (Neisseria gonorrhoeae): equally susceptible | MIC (Proteus rettgeri; read-out: Minimum Inhibitory Concentration, Proteus rettgeri strain 1, A, Inoculum of 10^2 organisms): 0.13 µg/mL (≈ 0.25 µM) | MIC (Proteus rettgeri; read-out: Minimum Inhibitory Concentration, Proteus rettgeri strain 1, B, Inoculum of 10^6 organisms): 125 µg/mL (≈ 241 µM) | MIC (Proteus rettgeri; read-out: Minimum Inhibitory Concentration, Proteus rettgeri strain 2, A, Inoculum of 10^2 organisms): 0.13 µg/mL (≈ 0.25 µM) | MIC (Proteus rettgeri; read-out: Minimum Inhibitory Concentration, Proteus rettgeri strain 2, B, Inoculum of 10^6 organisms): 63 µg/mL (≈ 121 µM) | MIC (Proteus rettgeri; read-out: Minimum Inhibitory Concentration, Proteus rettgeri strain 3, A, Inoculum of 10^2 organisms): 0.25 µg/mL (≈ 0.481 µM) | MIC (Proteus rettgeri; read-out: Minimum Inhibitory Concentration, Proteus rettgeri strain 3, B, Inoculum of 10^6 organisms): > 250 µg/mL | Tmax [2]: 15 min | half-life [2]: 33 min | Cmax ([2]; 20 mg/kg): 36000 ng/mL | Relative Rate of Hydrolysis (benzylpenicillin = 100) [3]: < 1 | Relative Rate of Hydrolysis (benzylpenicillin = 100) [4]: 30 | Relative Rate of Hydrolysis (benzylpenicillin = 100) [5]: 190 | Relative Rate of Hydrolysis (benzylpenicillin = 100) [6]: 6 | Relative Rate of Hydrolysis (benzylpenicillin = 100) [7]: 2 | Relative Rate of Hydrolysis (benzylpenicillin = 100) [8]: 1100 | relative activity against Haemophilus influenzae (Haemophilus influenzae): about equally active | MIC [9]: 125 µg/mL (≈ 241 µM) | MIC (Proteus vulgaris; read-out: Minimum Inhibitory Concentration, Proteus vulgaris strain 1, A, Inoculum of 10^2 organisms): 1 µg/mL (≈ 1.92 µM) | MIC (Proteus vulgaris; read-out: Minimum Inhibitory Concentration, Proteus vulgaris strain 1, B, Inoculum of 10^6 organisms): 4 µg/mL (≈ 7.7 µM) | MIC (Proteus vulgaris; read-out: Minimum Inhibitory Concentration, Proteus vulgaris strain 2, A, Inoculum of 10^2 organisms): 1 µg/mL (≈ 1.92 µM) | MIC (Proteus vulgaris; read-out: Minimum Inhibitory Concentration, Proteus vulgaris strain 2, B, Inoculum of 10^6 organisms): 8 µg/mL (≈ 15.4 µM) | MIC (Proteus vulgaris; read-out: Minimum Inhibitory Concentration, Proteus vulgaris strain 4, A, Inoculum of 10^2 organisms): 1 µg/mL (≈ 1.92 µM) | MIC (Proteus vulgaris; read-out: Minimum Inhibitory Concentration, Proteus vulgaris strain 4, B, Inoculum of 10^6 organisms): 8 µg/mL (≈ 15.4 µM) | MIC (Bacteroides Fragilis): 100 µg/mL (≈ 192 µM) | MIC (Enterobacter aerogenes; A, Inoculum of 10^2 organisms): 1 µg/mL (≈ 1.92 µM) | MIC (Enterobacter aerogenes; B, Inoculum of 10^6 organisms): > 250 µg/mL
